Experimental data reported in patent US20070056052A1, “Methods of generating knock-out rodents” (priority 2001, published 2007).
Entries after “also recorded” stand apart in the source; their conditions may differ.

Key:
Format in all cases: in vivo, rat
SD male rats (germ line) = assay: Visual phenodeviant screen of F1 pups from ENU-treated SD males
Description: (§1) ENU mutagenesis rat protocol: Pathogen-free inbred Wistar Furth (WF), inbred Fischer-344 (F344) and outbred Sprague Dawley (SD) male and female rats were obtained from Harlan Sprague Dawley, Inc. (Indianapolis, Ind.). All rats were given Teklad Lab Blox chow (Harlan Teklad, Madison, Wis.), acidified water ad libitum, and were housed under a 12-h light/12-h dark cycle. After a one week acclimation period, nine-week-old male rats were administered ENU as a single intraperitoneal injection; for a split dose, rats were injected with ENU once at 9 weeks of age and again at 10 weeks of age. One gram of ENU (Sigma) was dissolved in 10 mls of 95% ethanol and then diluted with 90 mls of phosphate citrate buffer prior to injection. All injections of ENU were given in the morning hours. To characterize the effect of ENU treatment on fertility in the various rat strains, mutagenized males were paired with untreated females of the same strain for consecutive 2-3 week periods, beginning 3-5 weeks after the first ENU treatment and continuing a minimum of 26 weeks post-ENU. We observed female rats for vaginal plugs, gross pregnancy and date of birth/size of litters. For our phenotypic mutant (phenodeviant) rat screening experiments, ENU-treated SD male rats were bred with SD female rats and all F1 pups were visually checked for gross abnormalities in physical development or behavior as compared to littermates at least twice prior to weaning at approximately 21 days of age. A subset of the F1 phenodeviant rats identified was bred to SD rats to determine inheritance of the observed phenotypic mutation. Several of the heritable phenodeviant rat lines are currently being maintained and backcrossed to eliminate residual ENU-induced genetic changes not associated with the phenotypic mutation.
(§2) Phenodeviant rat production: Multiple ENU dosing protocols in the SD rat strain determine their germline mutagenic potential by breeding ENU-treated SD males to females of the same strain to produce F1 offspring. These pups were examined for readily observable physical or behavioral abnormalities. Phenodeviants were identified at all doses listed in Table 2 with a variety of abnormalities observed. Phenodeviant F1 pups were born at various times between 6-52 weeks post-ENU treatment of male founders. The most frequent abnormalities visually identified were those of the eyes, tail, and growth. […] Selected phenodeviant rat F1 pups were maintained and bred to determine the heritability of the physical abnormalities (Table 3). […] These abnormalities were diverse (Table 4).

SD rats = assay: Heritability test of F1 phenodeviant rats bred to SD rats
Description: as §1, §2

male rats = assay: Toxicity and lifespan observation of ENU-treated male rats
Description: as §1, with “For our phenotypic mutant (phenodeviant) rat screening experiments, ENU-treated SD male rats were bred with SD female rats and all F1 pups were visually checked for gross abnormalities in physical development or behavior as compared to littermates at least twice prior to weaning at approximately 21 days of age. A subset of the F1 phenodeviant rats identified was bred to SD rats to determine inheritance of the observed phenotypic mutation. Several of the heritable phenodeviant rat lines are currently being maintained and backcrossed to eliminate residual ENU-induced genetic changes not associated with the phenotypic mutation.” left out

## CCN(N=O)C(N)=O [ENU, N-ethyl-N-nitrosourea]
SD male rats (germ line); single dose 100 mg/kg
  F1 phenodeviant rats, abnormality observed: behavioral: 1
  F1 phenodeviant rats, abnormality observed: craniofacial: 0
  F1 phenodeviant rats, abnormality observed: ear: 1
  F1 phenodeviant rats, abnormality observed: eye: 5
  F1 phenodeviant rats, abnormality observed: gonad: 1
  F1 phenodeviant rats, abnormality observed: growth (<50% littermates): 0
  F1 phenodeviant rats, abnormality observed: limb/digit: 0
  F1 phenodeviant rats, abnormality observed: multiple: 0
  F1 phenodeviant rats, abnormality observed: skin/hair: 0
  F1 phenodeviant rats, abnormality observed: tail: 0
SD male rats (germ line); single dose 100 mg/kg, 1251 F1 rats examined
  total number of phenodeviants: 8
SD male rats (germ line); single dose 120 mg/kg
  F1 phenodeviant rats, abnormality observed: behavioral: 0
  F1 phenodeviant rats, abnormality observed: craniofacial: 0
  F1 phenodeviant rats, abnormality observed: ear: 1
  F1 phenodeviant rats, abnormality observed: eye: 1
  F1 phenodeviant rats, abnormality observed: gonad: 0
  F1 phenodeviant rats, abnormality observed: growth (<50% littermates): 0
  F1 phenodeviant rats, abnormality observed: limb/digit: 0
  F1 phenodeviant rats, abnormality observed: multiple: 0
  F1 phenodeviant rats, abnormality observed: skin/hair: 0
  F1 phenodeviant rats, abnormality observed: tail: 1
SD male rats (germ line); single dose 120 mg/kg, 419 F1 rats examined
  total number of phenodeviants: 3
SD male rats (germ line); split dose 2 × 50 mg/kg
  F1 phenodeviant rats, abnormality observed: behavioral: 0
  F1 phenodeviant rats, abnormality observed: craniofacial: 0
  F1 phenodeviant rats, abnormality observed: ear: 0
  F1 phenodeviant rats, abnormality observed: eye: 4
  F1 phenodeviant rats, abnormality observed: gonad: 0
  F1 phenodeviant rats, abnormality observed: growth (<50% littermates): 0
  F1 phenodeviant rats, abnormality observed: limb/digit: 0
  F1 phenodeviant rats, abnormality observed: multiple: 0
  F1 phenodeviant rats, abnormality observed: skin/hair: 0
  F1 phenodeviant rats, abnormality observed: tail: 3
SD male rats (germ line); split dose 2 × 50 mg/kg, 782 F1 rats examined
  total number of phenodeviants: 7
SD male rats (germ line); split dose 2 × 60 mg/kg
  F1 phenodeviant rats, abnormality observed: behavioral: 0
  F1 phenodeviant rats, abnormality observed: craniofacial: 2
  F1 phenodeviant rats, abnormality observed: ear: 0
  F1 phenodeviant rats, abnormality observed: eye: 37
  F1 phenodeviant rats, abnormality observed: gonad: 0
  F1 phenodeviant rats, abnormality observed: growth (<50% littermates): 10
  F1 phenodeviant rats, abnormality observed: limb/digit: 5
  F1 phenodeviant rats, abnormality observed: multiple: 6
  F1 phenodeviant rats, abnormality observed: skin/hair: 6
  F1 phenodeviant rats, abnormality observed: tail: 13
SD male rats (germ line); split dose 2 × 60 mg/kg, 5163 F1 rats examined
  total number of phenodeviants: 79
SD rats; Line 18, F1 founder female, initial ENU dose 2 × 60 mg/kg
  ENU-induced heritable phenotype, observed phenotype: crooked tail & slit eyes
SD rats; Line 18, initial ENU dose 2 × 60 mg/kg
  Heritable phenotype confirmed in multiple litters: yes
SD rats; Line 19, F1 founder male, initial ENU dose 2 × 50 mg/kg
  ENU-induced heritable phenotype, observed phenotype: growth on tail
SD rats; Line 19, initial ENU dose 2 × 50 mg/kg
  Heritable phenotype confirmed in multiple litters: yes
SD rats; Line 28, F1 founder female, initial ENU dose 2 × 60 mg/kg
  ENU-induced heritable phenotype, observed phenotype: red ring eyes
SD rats; Line 28, initial ENU dose 2 × 60 mg/kg
  Heritable phenotype confirmed in multiple litters: yes
SD rats; Line 29, F1 founder female, initial ENU dose 2 × 60 mg/kg
  ENU-induced heritable phenotype, observed phenotype: oblong face
SD rats; Line 29, initial ENU dose 2 × 60 mg/kg
  Heritable phenotype confirmed in multiple litters: yes
SD rats; Line 32, F1 founder female, initial ENU dose 2 × 60 mg/kg
  ENU-induced heritable phenotype, observed phenotype: slit eyes
SD rats; Line 32, initial ENU dose 2 × 60 mg/kg
  Heritable phenotype confirmed in multiple litters: yes
SD rats; Line 38, F1 founder male, initial ENU dose 2 × 60 mg/kg
  ENU-induced heritable phenotype, observed phenotype: curved tail
SD rats; Line 38, initial ENU dose 2 × 60 mg/kg
  Heritable phenotype confirmed in multiple litters: yes
SD rats; Line 42, F1 founder female, initial ENU dose 2 × 60 mg/kg
  ENU-induced heritable phenotype, observed phenotype: bald spots
SD rats; Line 42, initial ENU dose 2 × 60 mg/kg
  Heritable phenotype confirmed in multiple litters: yes
SD rats; Line 60, F1 founder female, initial ENU dose 2 × 60 mg/kg
  ENU-induced heritable phenotype, observed phenotype: scaly skin
SD rats; Line 60, initial ENU dose 2 × 60 mg/kg, only one litter to date
  Heritable phenotype confirmed in multiple litters: no^a
SD rats; Line 61, F1 founder male, initial ENU dose 2 × 60 mg/kg
  ENU-induced heritable phenotype, observed phenotype: swollen feet
SD rats; Line 61, initial ENU dose 2 × 60 mg/kg, only one litter to date
  Heritable phenotype confirmed in multiple litters: no^a
SD rats; Line 63, initial ENU dose 2 × 60 mg/kg
  Heritable phenotype confirmed in multiple litters: yes
SD rats; SD, ENU dose 100 mg/kg
  # phenodeviants heritable: 0
  # phenodeviants non-heritable: 4
  # phenodeviants unknown (sterile, not evaluated, being evaluated or died): 4
SD rats; SD, ENU dose 120 mg/kg
  # phenodeviants heritable: 0
  # phenodeviants non-heritable: 2
  # phenodeviants unknown (sterile, not evaluated, being evaluated or died): 1
SD rats; SD, ENU dose 2 × 50 mg/kg
  # phenodeviants heritable: 1
  # phenodeviants non-heritable: 4
  # phenodeviants unknown (sterile, not evaluated, being evaluated or died): 2
SD rats; SD, ENU dose 2 × 60 mg/kg
  # phenodeviants heritable: 9
  # phenodeviants non-heritable: 9
  # phenodeviants unknown (sterile, not evaluated, being evaluated or died): 61
SD rats; SD, single dose protocols
  heritability of mutations in phenodeviants tested: none of the six phenodeviant rats tested showed heritable mutations
Male rats; about one year post-ENU
  lifespan and tumors of fertile mutagenized male rats: shortened, with many developing skin and kidney tumors and lymphomas at approximately one year of age
Male rats; all doses of Table 1, SD, F344, WF
  acute toxicity to male rats: none of the ENU doses used were toxic to the male rats; also recorded: None of the doses listed in Table 1 were acutely toxic
